Measured values reported in patent publication US12209087B2, “AKT1 modulators” (Alterome Therapeutics, Inc., priority 2022, dated 2025).

Molecular target: T1, full length AKT E17K (Homo sapiens, UniProt P31749, E17K)
T1 construct: host or cells: HEK-293 (ATCC CRL-1573)
Assay: NanoBRET Target Engagement (TE) Assay
Type: cell-based
Conditions: competitive tracer displacement in living cells, read-out: AKT1 E17K IC50
From the text: The NanoBRET™ Target Engagement (TE) Intracellular Kinase Assays are based on the NanoBRET™ System (Promega Corporation), an energy transfer technique designed to measure molecular proximity in living cells. The NanoBRET™ TE Assays measure the apparent affinity of test compounds by competitive displacement of the NanoBRET™ tracer compound, which is a cell permeable molecule engineered to be reversibly bound to a NanoLuc® luciferase-kinase fusion expressed in cells. For compound screening, when a test compound binds to the selected kinase, the BRET signal is attenuated. […] All cells were evaluated for viability prior to transfection and optimization of the transfection was done prior to experimentation. […] Following transfection, cells were washed and resuspended in Opti-MEM. NanoBRET assays were performed in white, 384-well plates (Corning) at a density of […]. All example compounds were prepared as concentrated stock solutions in DMSO (Sigma-Aldrich). Compounds are dissolved in DMSO to make 10 mM stock solution. […] A Labcyte ECHO 550 compound dispenser was used to facilitate compound transfer directly to cells. Cells were equilibrated for 2 hr with energy transfer probes and example compound prior to BRET measurements. […] For target engagement analysis, the energy transfer probes were added to the cells at concentrations optimized for the target in question (AKT E17K). Following compound incubation, NanoBRET NanoGlo Substrate (Promega Cat #N157D) and Extracellular Nanoluc Inhibitor (Promega Cat #N235C) was added according to the manufacturer's recommended protocol, and luminescence was measured on Envision Reader (Perkin Elmer) Multimode Luminometer equipped with 450 nm BPfilter (donor) and 600 nm LPfilter (acceptor), using 0.5 s integration time. Milli-BRET units (mBU) are calculated by multiplying the raw BRET values by 1000. Apparent tracer affinity values (EC50) were determined using the sigmoidal dose-response (variable slope).
Competitive displacement data were then plotted and data were fit to determine the EC50 value for each example compound.

T1 sequence (P31749 whole entry E17K): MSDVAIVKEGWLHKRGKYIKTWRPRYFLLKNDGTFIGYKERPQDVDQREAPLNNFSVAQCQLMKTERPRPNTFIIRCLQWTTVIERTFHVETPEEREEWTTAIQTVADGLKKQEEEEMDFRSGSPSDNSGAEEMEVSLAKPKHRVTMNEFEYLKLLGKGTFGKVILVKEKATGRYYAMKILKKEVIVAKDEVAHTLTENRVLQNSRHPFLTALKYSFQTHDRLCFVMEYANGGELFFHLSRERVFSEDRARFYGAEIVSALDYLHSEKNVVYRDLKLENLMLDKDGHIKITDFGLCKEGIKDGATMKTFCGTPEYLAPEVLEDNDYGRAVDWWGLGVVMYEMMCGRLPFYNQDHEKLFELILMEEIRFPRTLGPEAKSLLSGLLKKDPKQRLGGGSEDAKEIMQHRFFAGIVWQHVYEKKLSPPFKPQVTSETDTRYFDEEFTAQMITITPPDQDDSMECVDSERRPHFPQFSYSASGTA

SMILES	IC50
CC(=O)Nc1cccc(-c2ccc3nc(-c4cccnc4N)n(-c4ccc(CN5CCN(c6cncc(C#N)n6)CC5)cc4)c3n2)c1 [Example 40, N-(3-(2-(2-aminopyridin-3-yl)-3-(4-((4-(6-cyanopyrazin-2-yl)piperazin-1-yl)methyl)phenyl)-3H-imidazo[4,5-b]pyridin-5-yl)phenyl)acetamide]	< 15 nM
CC(=O)Nc1cccc(-c2ccc3nc(-c4cccnc4N)n(-c4ccc(CN5CCN(c6cc(C#N)ncn6)CC5)cc4)c3n2)c1 [Example 41, N-(3-(2-(2-Aminopyridin-3-yl)-3-(4-((4-(6-cyanopyrimidin-4-yl)piperazin-1-yl)methyl)phenyl)-3H-imidazo[4,5-b]pyridin-5-yl)phenyl)acetamide]	< 15 nM
CC(=O)Nc1cccc(-c2ccc3nc(-c4cccnc4N)n(-c4ccc(CN5CCN(c6cnc(C#N)nc6)CC5)cc4)c3n2)c1 [Example 42, N-(3-(2-(2-Aminopyridin-3-yl)-3-(4-((4-(2-cyanopyrimidin-5-yl)piperazin-1-yl)methyl)phenyl)-3H-imidazo[4,5-b]pyridin-5-yl)phenyl)acetamide]	15 to 60 nM
CC(=O)Nc1cccc(-c2ccc3nc(-c4cccnc4N)n(-c4ccc(CN5CCN(c6cnnc(C#N)c6)CC5)cc4)c3n2)c1 [Example 43, N-(3-(2-(2-Aminopyridin-3-yl)-3-(4-((4-(6-cyanopyridazin-4-yl)piperazin-1-yl)methyl)phenyl)-3H-imidazo[4,5-b]pyridin-5-yl)phenyl)acetamide]	60 to 600 nM
CC(=O)Nc1cccc(-c2ccc3nc(-c4cccnc4N)n(-c4ccc(CN5CCN(c6ccnc(C#N)n6)CC5)cc4)c3n2)c1 [Example 44, N-(3-(2-(2-Aminopyridin-3-yl)-3-(4-((4-(2-cyanopyrimidin-4-yl)piperazin-1-yl)methyl)phenyl)-3H-imidazo[4,5-b]pyridin-5-yl)phenyl)acetamide]	< 15 nM
CC(=O)Nc1cccc(-c2ccc3nc(-c4cccnc4N)n(-c4ccc(CN5CCN(c6cc(C#N)cnn6)CC5)cc4)c3n2)c1 [Example 45, N-(3-(2-(2-Aminopyridin-3-yl)-3-(4-((4-(5-cyanopyridazin-3-yl)piperazin-1-yl)methyl)phenyl)-3H-imidazo[4,5-b]pyridin-5-yl)phenyl)acetamide]	60 to 600 nM
CC(=O)Nc1cccc(-c2ccc3nc(-c4cccnc4N)n(-c4ccc(CN5CCN(c6nccc(C#N)n6)CC5)cc4)c3n2)c1 [Example 46, N-(3-(2-(2-Aminopyridin-3-yl)-3-(4-((4-(4-cyanopyrimidin-2-yl)piperazin-1-yl)methyl)phenyl)-3H-imidazo[4,5-b]pyridin-5-yl)phenyl)acetamide]	< 15 nM
N#Cc1nccc(NCc2ccc(-n3c(-c4cccnc4N)nc4cccnc43)cc2)n1 [Example 47, 4-((4-(2-(2-Aminopyridin-3-yl)-3H-imidazo[4,5-b]pyridin-3-yl)benzyl)amino)pyrimidine-2-carbonitrile]	600 to 10000 nM
N#Cc1nccc(N2CCN(Cc3ccc(-n4c(-c5cccnc5N)nc5ccc(-c6ccccc6)nc54)cc3)CC2)n1 [Example 49, 4-(4-(4-(2-(2-Aminopyridin-3-yl)-5-phenyl-3H-imidazo[4,5-b]pyridin-3-yl)benzyl)piperazin-1-yl)pyrimidine-2-carbonitrile]	< 15 nM
N#Cc1cnnc(NCc2ccc(-n3c(-c4cccnc4N)nc4cccnc43)cc2)c1 [Example 50, 6-((4-(2-(2-Aminopyridin-3-yl)-3H-imidazo[4,5-b]pyridin-3-yl)benzyl)amino)pyridazine-4-carbonitrile]	600 to 10000 nM
N#Cc1cnnc(NC2CCN(Cc3ccc(-n4c(-c5cccnc5N)nc5cccnc54)cc3)CC2)c1 [Example 51, 6-((1-(4-(2-(2-Aminopyridin-3-yl)-3H-imidazo[4,5-b]pyridin-3-yl)benzyl)piperidin-4-yl)amino)pyridazine-4-carbonitrile]	600 to 10000 nM
N#Cc1cnnc(N2CCN(Cc3ccc(-n4c(-c5cccnc5N)nc5ccc(-c6ccccc6)nc54)cc3)CC2)c1 [Example 53, 6-(4-(4-(2-(2-Aminopyridin-3-yl)-5-phenyl-3H-imidazo[4,5-b]pyridin-3-yl)benzyl)piperazin-1-yl)pyridazine-4-carbonitrile]	60 to 600 nM
N#Cc1cnnc(NC2CCN(Cc3ccc(-n4c(-c5cccnc5N)nc5ccc(-c6ccccc6)nc54)cc3)CC2)c1 [Example 54, 6-((1-(4-(2-(2-Aminopyridin-3-yl)-5-phenyl-3H-imidazo[4,5-b]pyridin-3-yl)benzyl)piperidin-4-yl)amino)pyridazine-4-carbonitrile]	60 to 600 nM
N#Cc1cc(C(=O)NC2CCN(Cc3ccc(-n4c(-c5cccnc5N)nc5ccc(-c6ccccc6)nc54)cc3)CC2)ccn1 [Example 55, N-(1-(4-(2-(2-Aminopyridin-3-yl)-5-phenyl-3H-imidazo[4,5-b]pyridin-3-yl)benzyl)piperidin-4-yl)-2-cyanoisonicotinamide]	15 to 60 nM
N#Cc1cccc(C(=O)NC2CCN(Cc3ccc(-n4c(-c5cccnc5N)nc5ccc(-c6ccccc6)nc54)cc3)CC2)n1 [Example 56, N-(1-(4-(2-(2-Aminopyridin-3-yl)-5-phenyl-3H-imidazo[4,5-b]pyridin-3-yl)benzyl)piperidin-4-yl)-6-cyanopicolinamide]	< 15 nM
N#Cc1cncc(C(=O)NC2CCN(Cc3ccc(-n4c(-c5cccnc5N)nc5ccc(-c6ccccc6)nc54)cc3)CC2)c1 [Example 57, N-(1-(4-(2-(2-Aminopyridin-3-yl)-5-phenyl-3H-imidazo[4,5-h]pyridin-3-yl)benzyl)piperidin-4-yl)-5-cyanonicotinamide]	60 to 600 nM
N#Cc1ncccc1C(=O)NC1CCN(Cc2ccc(-n3c(-c4cccnc4N)nc4ccc(-c5ccccc5)nc43)cc2)CC1 [Example 58, N-(1-(4-(2-(2-Aminopyridin-3-yl)-5-phenyl-3H-imidazo[4,5-h]pyridin-3-yl)benzyl)piperidin-4-yl)-2-cyanonicotinamide]	< 15 nM
N#Cc1cnccc1C(=O)NC1CCN(Cc2ccc(-n3c(-c4cccnc4N)nc4ccc(-c5ccccc5)nc43)cc2)CC1 [Example 59, N-(1-(4-(2-(2-Aminopyridin-3-yl)-5-phenyl-3H-imidazo[4,5-b]pyridin-3-yl)benzyl)piperidin-4-yl)-3-cyanoisonicotinamide]	15 to 60 nM
N#Cc1ccncc1C(=O)NC1CCN(Cc2ccc(-n3c(-c4cccnc4N)nc4ccc(-c5ccccc5)nc43)cc2)CC1 [Example 60, N-(1-(4-(2-(2-Aminopyridin-3-yl)-5-phenyl-3H-imidazo[4,5-b]pyridin-3-yl)benzyl)piperidin-4-yl)-4-cyanonicotinamide]	< 15 nM
N#Cc1cccnc1C(=O)NC1CCN(Cc2ccc(-n3c(-c4cccnc4N)nc4ccc(-c5ccccc5)nc43)cc2)CC1 [Example 61, N-(1-(4-(2-(2-Aminopyridin-3-yl)-5-phenyl-3H-imidazo[4,5-b]pyridin-3-yl)benzyl)piperidin-4-yl)-3-cyanopicolinamide]	< 15 nM
N#Cc1cc(NC2CCN(Cc3ccc(-n4c(-c5cccnc5N)nc5cccnc54)cc3)CC2)ccn1 [Example 62, 4-((1-(4-(2-(2-Aminopyridin-3-yl)-3H-imidazo[4,5-b]pyridin-3-yl)benzyl)piperidin-4-yl)amino)picolinonitrile]	600 to 10000 nM
N#Cc1cccc(NC2CCN(Cc3ccc(-n4c(-c5cccnc5N)nc5cccnc54)cc3)CC2)n1 [Example 63, 6-((1-(4-(2-(2-Aminopyridin-3-yl)-3H-imidazo[4,5-b]pyridin-3-yl)benzyl)piperidin-4-yl)amino)picolinonitrile]	600 to 10000 nM
N#Cc1cc(NC2CCN(Cc3ccc(-n4c(-c5cccnc5N)nc5cccnc54)cc3)CC2)ncn1 [Example 64, 6-((1-(4-(2-(2-aminopyridin-3-yl)-3H-imidazo[4,5-b]pyridin-3-yl)benzyl)piperidin-4-yl)amino)pyrimidine-4-carbonitrile]	600 to 10000 nM
N#Cc1cncc(N2CCN(Cc3ccc(-n4c(-c5cccnc5N)nc5ccc(-c6ccccc6)nc54)cc3)CC2)c1 [Example 65, 5-(4-(4-(2-(2-Aminopyridin-3-yl)-5-phenyl-3H-imidazo[4,5-b]pyridin-3-yl)benzyl)piperazin-1-yl)nicotinonitrile]	60 to 600 nM
N#Cc1ccnc(N2CCN(Cc3ccc(-n4c(-c5cccnc5N)nc5ccc(-c6ccccc6)nc54)cc3)CC2)c1 [Example 66, 2-(4-(4-(2-(2-Aminopyridin-3-yl)-5-phenyl-3H-imidazo[4,5-b]pyridin-3-yl)benzyl)piperazin-1-yl)isonicotinonitrile]	600 to 10000 nM
N#Cc1cncc(N2CCN(Cc3ccc(-n4c(-c5cccnc5N)nc5ccc(-c6ccccc6)nc54)cc3)CC2)n1 [Example 67, 6-(4-(4-(2-(2-Aminopyridin-3-yl)-5-phenyl-3H-imidazo[4,5-b]pyridin-3-yl)benzyl)piperazin-1-yl)pyrazine-2-carbonitrile]	60 to 600 nM
